{"source": "patent US10538564B2", "about": "“Peptides having osteoblast growth-promoting activity and use thereof” (PHARMA FOODS INTERNATIONAL CO., LTD., priority 2014, dated 2020)", "key": {"[1]": {"system": "Crlj:W1 male rats at four weeks old", "experiment": "Mineral apposition rate in secondary cancellous bone, 7-day oral administration", "assay_type": "in vivo, rat", "conditions": "seven days", "protocol": "One of the synthetic peptides (No. 1) or water for injection (control) was administered to Crlj:W1 male rats at four weeks old by oral gavage using a gastric tube once a day for seven days (n=10 in each group). The dose of the synthetic peptide was 1, 10 or 100 mg/kg-day. As a positive control, human growth hormone (hGH) (Norditropin, Standard Commodity Classification No. of Japan: 872412) was subcutaneously administered at 500 μg/kg·day once a day for seven days. As fluorescent labels for the site of bone formation, tetracycline (20 mg/kg) was subcutaneously administered on day 4 after the administration of the peptide or control, and then calcein (10 mg/kg) was subcutaneously administered on day 6 after the administration of the peptide or control. After the administration of the test sample on day 7, the rats were kept under fasting conditions. Twenty-four hours later, the rats were euthanized by bloodletting under anesthesia, and the tibiae were harvested. Non-decalcified specimens of the proximal tibiae were prepared and photographed under a fluorescent microscope (BX-53, OLYMPUS). The bone morphology was measured using a morphometry system (Histometry RT digitizer, System Supply Co., Ltd.) and an analysis software (CSS-840 cancellous bone morphometry version, System Supply Co., Ltd.). The mineral apposition rate (MAR), per day, in the secondary cancellous bone was determined by measuring the distance between the tetracycline label and the calcein label in the secondary cancellous bone, and dividing the distance by the administration interval between the fluorescent labels (two days). […] The increase in the mineral apposition rate in the secondary cancellous bone in the No. 1 administration group would have resulted from the increase in the number of osteoblasts."}, "[2]": {"system": "mouse-derived cell line ATDC5", "experiment": "Hyaluronic acid production-promoting activity (ELISA of culture supernatant)", "assay_type": "cell-based", "conditions": "10 nmol/mL; supernatant after 48 hours of culture; FIG. 15", "protocol": "This study was performed using the mouse-derived cell line ATDC5 as used in Example 4. ATDC5 cells in the logarithmic growth phase were seeded at 2×10^4 cells/mL per well in a 24-well plate containing DMEM/F-12 (1:1) medium supplemented with 5% FCS (fetal calf serum), 10 μg/mL transferrin and 3×10^−8 M sodium selenite. The cells were precultured at 5% CO2 and 95% air at 37° C. On the next day, the medium in each well was removed, and medium containing the synthetic peptide (No. 1 or No. 6) at 10 nmol/mL was added. The cells were cultured for […]. As a control, medium without a synthetic peptide was added. After 48 hours of culture, the culture supernatants were collected, and their hyaluronic acid concentrations were measured using QnE Hyaluronic Acid ELISA Assay (Biotech Trading Partners). The concentrations of hyaluronic acid in the culture supernatants of the synthetic peptide addition group were calculated by subtracting the absorbance of the background from the absorbance of the supernatants, and fitting the resulting values to the reference curve prepared using the standard."}, "[3]": {"system": "mouse-derived chondrogenic cell line ATDC5", "experiment": "Chondrocyte growth-promoting activity (Cell Counting Kit-8)", "assay_type": "cell-based", "conditions": "10 nmol/mL; 72 hours; relative to control taken as 100%; FIG. 14", "protocol": "This study was performed using mouse-derived chondrogenic cell line ATDC5 (RIKEN BANK, RBC0565). ATDC5 cells in the logarithmic growth phase were suspended at 3×10^4 cells/mL in Eagle MEM medium supplemented with 5% FCS (fetal calf serum), and 100 μL of the cell suspension was seeded in each well of a 96-well plate and precultured at 5% CO2 and 95% air at 37° C. On the next day, the medium in each well was removed, and medium containing the synthetic peptide (No. 1 or No. 6) at 10 nmol/mL was added. The cells were cultured for 72 hours. As a control, medium without a synthetic peptide was added. The reaction solution ([…]) of Cell Counting Kit-8 (Dojindo Laboratories) was added to each well. The plate was incubated for 3 hours, and the absorbance at 450 nm was measured with a microplate reader. The activity of the synthetic peptides for promoting the growth of chondrocytes was expressed in terms of the relative value, with the absorbance (growth rate) in the control group taken as 100%."}, "[4]": {"system": "Crlj:W1 male rats at four weeks old", "experiment": "Bone formation in growth cartilage and primary cancellous bone, 7-day oral administration", "assay_type": "in vivo, rat", "conditions": "seven days", "protocol": "One of the synthetic peptides (No. 1) or water for injection (control) was administered to Crlj:W1 male rats at four weeks old by oral gavage using a gastric tube once a day for seven days (n=3 in each group). The dose of the synthetic peptide (No. 1) was 100 mg/kg-day. As a positive control, human growth hormone (hGH) (Norditropin, Standard Commodity Classification No. of Japan: 872412) was subcutaneously administered at 500 μg/kg-day once a day for seven days. As fluorescent labels for the site of bone formation, tetracycline (20 mg/kg) was subcutaneously administered on day 4 after the administration of the peptide or control, and then calcein (10 mg/kg) was subcutaneously administered on day 6 after the administration of the peptide or control. After the administration of the test sample on day 7, the rats were kept under fasting conditions. Twenty-four hours later, the blood was collected. The rats were then euthanized by bloodletting under anesthesia, and the tibiae were harvested (see FIG. 16). Non-decalcified specimens of the proximal tibiae were prepared and photographed under a fluorescent microscope (BX-53, OLYMPUS). The bone morphology was measured using a morphometry system (Histometry RT digitizer, System Supply Co., Ltd.) and an analysis software (CSS-840 cancellous bone morphometry version, System Supply Co., Ltd.). The longitudinal growth rate (Lo.G.R.) in the growth cartilage, which is the increase in the height per day, was determined by measuring the distance between the tetracycline label and the calcein label, and dividing the distance by the administration interval between the fluorescent labels (two days).\nThe increase in the level of IGF-1, which is related to growth of the bones and muscles in a growth phase, may contribute to the bone growth-promoting effect."}}, "note": "No end group written: not given here."}
{"sequence": "VNPESEEE [No. 1]", "values": [{"measurement": "mineral apposition rate (MAR) in the secondary cancellous bone, vs control group", "setting": "[1]; No. 1 oral 1, 10 or 100 mg/kg-day, hGH 500 μg/kg·day subcutaneous, FIG. 26", "value": "significant increase in the mineral apposition rate"}, {"measurement": "osteoblast surface/bone surface (Ob.S/BS)", "setting": "[1]; oral 1, 10 or 100 mg/kg-day, FIG. 27", "value": "high percentage"}, {"measurement": "number of osteoblasts/tissue volume (N.Ob/TV)", "setting": "[1]; oral 1, 10 or 100 mg/kg-day, FIG. 28", "value": "high number of osteoblasts"}, {"measurement": "bone formation rate/bone surface (BFR/BS)", "setting": "[1]; oral 1, 10 or 100 mg/kg-day, FIG. 29", "value": "high rates"}, {"measurement": "bone formation rate/bone surface (BFR/BS), vs control group", "setting": "[1]; oral dose of 10 mg/kg-day or more", "value": "significant increase in the bone formation rate"}, {"measurement": "mineral apposition rate (MAR) in the secondary cancellous bone, vs hGH administration group", "setting": "[1]; oral dose of 10 mg/kg·day or more, FIG. 26", "value": "significant increase in the mineral apposition rate at a dose of 10 mg/kg·day or more as compared with the hGH administration group"}, {"measurement": "hyaluronic acid production-promoting activity (hyaluronic acid concentration in culture supernatant)", "setting": "[2]", "value": "showed hyaluronic acid production-promoting effect"}, {"measurement": "chondrocyte growth-promoting activity", "setting": "[3]", "value": "showed chondrocyte growth-promoting effect"}, {"measurement": "serum level of insulin-like growth factor (IGF-1)", "setting": "[4]; No. 1 oral 100 mg/kg-day, hGH 500 μg/kg-day subcutaneous, ELISA, FIG. 19", "value": "higher than that in the control group"}, {"measurement": "longitudinal growth rate (Lo.G.R.) in the growth cartilage, vs control group", "setting": "[4]; No. 1 oral 100 mg/kg-day, hGH 500 μg/kg-day subcutaneous, FIG. 17", "value": "significant promotion of bone growth as compared with the control group"}, {"measurement": "longitudinal growth rate (Lo.G.R.) in the growth cartilage, vs hGH administration group", "setting": "[4]; oral 100 mg/kg-day, FIG. 17", "value": "significant as compared with the hGH administration group"}, {"measurement": "incorporation of the fluorescent labels into the primary cancellous bone", "setting": "[4]; oral 100 mg/kg-day, vs control group and hGH group, FIG. 18", "value": "high frequency of incorporation of the fluorescent labels into the primary cancellous bone"}]}
